From PubChem BioAssay AID1963430 (Molecular Pharmacology Branch, DTP, NCI, 2024)

Test system: 521955-158-R2-J5-PDC complex spheroid growth, % test/control
Assay: Anticancer human tumor 521955-158-R2-J5-PDC patient-derived pancreatic carcinoma cell line growth inhibition [Asc]
Settings: for IC50: curve of first compound; for viability, T/C: stronger effect = lower value
Outline: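 Complex spheroids combining tumor cells with HUVEC endothelial cells and human MSCs, at 37 degrees C, 5% CO2; agents tested alone or combined, half-log dilutions from at or near clinical Cmax, or 10 microM if Cmax unknown.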
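Note: spheroids exposed to agents for 7 days before readout.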
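Throughout, for viability, T/C: 100% = DMSO vehicle control viability.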

Cn1ncnc1[C@H]1c2n[nH]c(=O)c3cc(F)cc(c23)N[C@@H]1c1ccc(F)cc1 + CNC(C)C(=O)NC1CN(S(=O)(=O)c2cccc(S(=O)(=O)N3CCC4CCC(C(=O)NC(c5ccccc5)c5ccccc5)N4C(=O)C(NC(=O)C(C)NC)C3)c2)CCC2CCC(C(=O)NC(c3ccccc3)c3ccccc3)N2C1=O
IC50 (second compound 0.01 µM): > 0.1 µM
IC50 (second compound 0.0316 µM): > 0.1 µM
IC50 (second compound 0.1 µM): > 0.1 µM
IC50 (second compound 0.316 µM): > 0.1 µM
IC50 (second compound 1 µM): > 0.1 µM
viability, T/C (second compound 0.01 µM, first compound 0.000316 µM): 103%
viability, T/C (second compound 0.01 µM, first compound 0.001 µM): 103%
viability, T/C (second compound 0.01 µM, first compound 0.00316 µM): 85.7%
viability, T/C (second compound 0.01 µM, first compound 0.01 µM): 65.6%
viability, T/C (second compound 0.01 µM, first compound 0.0316 µM): 65.4%
viability, T/C (second compound 0.01 µM, first compound 0.1 µM): 71.9%
viability, T/C (second compound 0.0316 µM, first compound 0.000316 µM): 103%
viability, T/C (second compound 0.0316 µM, first compound 0.001 µM): 102%
viability, T/C (second compound 0.0316 µM, first compound 0.00316 µM): 89.6%
viability, T/C (second compound 0.0316 µM, first compound 0.01 µM): 78%
viability, T/C (second compound 0.0316 µM, first compound 0.0316 µM): 62.3%
viability, T/C (second compound 0.0316 µM, first compound 0.1 µM): 64.1%
viability, T/C (second compound 0.1 µM, first compound 0.000316 µM): 80.8%
viability, T/C (second compound 0.1 µM, first compound 0.001 µM): 108%
viability, T/C (second compound 0.1 µM, first compound 0.00316 µM): 91%
viability, T/C (second compound 0.1 µM, first compound 0.01 µM): 76.5%
viability, T/C (second compound 0.1 µM, first compound 0.0316 µM): 86.9%
viability, T/C (second compound 0.1 µM, first compound 0.1 µM): 56.2%
viability, T/C (second compound 0.316 µM, first compound 0.000316 µM): 100%
viability, T/C (second compound 0.316 µM, first compound 0.001 µM): 83%
viability, T/C (second compound 0.316 µM, first compound 0.00316 µM): 96.4%
viability, T/C (second compound 0.316 µM, first compound 0.01 µM): 79.2%
viability, T/C (second compound 0.316 µM, first compound 0.0316 µM): 73.4%
viability, T/C (second compound 0.316 µM, first compound 0.1 µM): 63.2%
viability, T/C (second compound 1 µM, first compound 0.000316 µM): 108%
viability, T/C (second compound 1 µM, first compound 0.001 µM): 75.1%
viability, T/C (second compound 1 µM, first compound 0.00316 µM): 102%
viability, T/C (second compound 1 µM, first compound 0.01 µM): 89.5%
viability, T/C (second compound 1 µM, first compound 0.0316 µM): 68.3%
viability, T/C (second compound 1 µM, first compound 0.1 µM): 86.6%

Cc1nc(N2CCC3(CC2)COC(C)C3N)c(CO)nc1Sc1ccnc(N)c1Cl (stereo not given) + CNC(C)C(=O)NC1CN(S(=O)(=O)c2cccc(S(=O)(=O)N3CCC4CCC(C(=O)NC(c5ccccc5)c5ccccc5)N4C(=O)C(NC(=O)C(C)NC)C3)c2)CCC2CCC(C(=O)NC(c3ccccc3)c3ccccc3)N2C1=O
IC50 (second compound 0.01 µM): 0.613 µM
IC50 (second compound 0.0316 µM): 0.888 µM
IC50 (second compound 0.1 µM): 0.271 µM
IC50 (second compound 0.316 µM): > 3 µM
IC50 (second compound 1 µM): 1.48 µM
viability, T/C (second compound 0.01 µM, first compound 0.00949 µM): 86.7%
viability, T/C (second compound 0.01 µM, first compound 0.03 µM): 67.7%
viability, T/C (second compound 0.01 µM, first compound 0.0949 µM): 64.6%
viability, T/C (second compound 0.01 µM, first compound 0.3 µM): 49%
viability, T/C (second compound 0.01 µM, first compound 0.949 µM): 48.9%
viability, T/C (second compound 0.01 µM, first compound 3 µM): 46.2%
viability, T/C (second compound 0.0316 µM, first compound 0.00949 µM): 83.6%
viability, T/C (second compound 0.0316 µM, first compound 0.03 µM): 72%
viability, T/C (second compound 0.0316 µM, first compound 0.0949 µM): 66.7%
viability, T/C (second compound 0.0316 µM, first compound 0.3 µM): 46%
viability, T/C (second compound 0.0316 µM, first compound 0.949 µM): 50.4%
viability, T/C (second compound 0.0316 µM, first compound 3 µM): 52.6%
viability, T/C (second compound 0.1 µM, first compound 0.00949 µM): 84.3%
viability, T/C (second compound 0.1 µM, first compound 0.03 µM): 68.1%
viability, T/C (second compound 0.1 µM, first compound 0.0949 µM): 58.9%
viability, T/C (second compound 0.1 µM, first compound 0.3 µM): 43%
viability, T/C (second compound 0.1 µM, first compound 0.949 µM): 52.1%
viability, T/C (second compound 0.1 µM, first compound 3 µM): 46.9%
viability, T/C (second compound 0.316 µM, first compound 0.00949 µM): 93.3%
viability, T/C (second compound 0.316 µM, first compound 0.03 µM): 65.3%
viability, T/C (second compound 0.316 µM, first compound 0.0949 µM): 64.4%
viability, T/C (second compound 0.316 µM, first compound 0.3 µM): 51.9%
viability, T/C (second compound 0.316 µM, first compound 0.949 µM): 53.9%
viability, T/C (second compound 0.316 µM, first compound 3 µM): 51.6%
viability, T/C (second compound 1 µM, first compound 0.00949 µM): 76.7%
viability, T/C (second compound 1 µM, first compound 0.03 µM): 59.3%
viability, T/C (second compound 1 µM, first compound 0.0949 µM): 62.2%
viability, T/C (second compound 1 µM, first compound 0.3 µM): 50.9%
viability, T/C (second compound 1 µM, first compound 0.949 µM): 57.2%
viability, T/C (second compound 1 µM, first compound 3 µM): 45%
